In one data set the test system is A431-ABCC1. Description: MTT proliferation / drug combination assay. The conditions noted are these: Homo sapiens, comparative MTT, 48 h, read-out: antiproliferative IC50. The format is cell-based. Here is the method:
(§1) The viability MTT assay was employed in several experimental sets, including induction studies, comparative viability assays, and drug combinations. First, 1.3 × 10^4 (MDCKII sublines), 1.2 × 10^4 (A431 sublines), 1.5 × 10^4 (MCF-7), and 1.0 × 10^4 (primary NSCLC explants) cells were seeded in 96-well plates. After seeding, cells were left to refresh in incubator for 24 h. Secondly, the medium was removed, and the serial dilutions of the drugs or drug combinations were added to the cells. Next to these variants, a medium with 40% DMSO and vehicle-containing media were tested as nonviable and unaffected viability controls, respectively. After an additional 48 h of incubation, the cells were washed with 1 × PBS and then treated with 1 mg/mL MTT solution in Opti-MEM. Subsequently, cells were incubated for 60 min under standard conditions. After MTT treatment, generated formazan crystals were solubilized with DMSO for 10 min. Wavelengths of 570 nm (formazan) and 690 nm (background) were used for absorbance measurements using a microplate reader Infinite 200 Pro NanoQuant (Tecan, Männedorf, Switzerland).
(§2) In vitro cell lines (MDCKII and A431) and primary NSCLC explants were seeded (see densities above) in 96-well plates and incubated for 24 h. […] Combined cells were incubated with the tested compounds for 48 h, and subsequently, MTT assay was performed to assess cell viability as described above. Besides IC50-shift analysis, CompuSyn 3.0.1 software (ComboSyn Inc., Paramus, NJ, USA) was used for the additional analysis of obtained data. This software works with the algorithms of the combination index (CI) method of Chou–Talalay, which is frequently used for the accurate quantification of drug combinations’ outcomes. According to the CI method principle, the combination effects were separated into three categories, including synergistic (CI < 0.9), additive (CI between 0.9–1.1), or antagonistic (CI > 1.1) ones.

The test system of a further data set is A431-parent. Nature of the data set: MTT proliferation / drug combination assay. The data set is classed as cell-based. The conditions noted are these: Homo sapiens, A-431; A431 parental; comparative MTT, 48 h; read-out: antiproliferative IC50. Here is the method: as §1, §2
The test system of a further data set is A431-ABCG2. Nature of the data set: MTT proliferation / drug combination assay. The data set is classed as cell-based. The conditions noted are these: Homo sapiens; A431-ABCG2; comparative MTT, 48 h; read-out: antiproliferative IC50. The procedure: as §1, §2
For data set [1], the target named is T1, ABCB1 (Homo sapiens, UniProt P08183). Also on record: expressed in transfected cells; host or cells: MDCKII (canine kidney) subline MDCKII-ABCB1, gift of Dr. Alfred Schinkel. The conditions noted are these: Abcb1-knockout mice, MDCKII-ABCB1 cells; cited from earlier work.
T1 sequence (P08183 whole entry): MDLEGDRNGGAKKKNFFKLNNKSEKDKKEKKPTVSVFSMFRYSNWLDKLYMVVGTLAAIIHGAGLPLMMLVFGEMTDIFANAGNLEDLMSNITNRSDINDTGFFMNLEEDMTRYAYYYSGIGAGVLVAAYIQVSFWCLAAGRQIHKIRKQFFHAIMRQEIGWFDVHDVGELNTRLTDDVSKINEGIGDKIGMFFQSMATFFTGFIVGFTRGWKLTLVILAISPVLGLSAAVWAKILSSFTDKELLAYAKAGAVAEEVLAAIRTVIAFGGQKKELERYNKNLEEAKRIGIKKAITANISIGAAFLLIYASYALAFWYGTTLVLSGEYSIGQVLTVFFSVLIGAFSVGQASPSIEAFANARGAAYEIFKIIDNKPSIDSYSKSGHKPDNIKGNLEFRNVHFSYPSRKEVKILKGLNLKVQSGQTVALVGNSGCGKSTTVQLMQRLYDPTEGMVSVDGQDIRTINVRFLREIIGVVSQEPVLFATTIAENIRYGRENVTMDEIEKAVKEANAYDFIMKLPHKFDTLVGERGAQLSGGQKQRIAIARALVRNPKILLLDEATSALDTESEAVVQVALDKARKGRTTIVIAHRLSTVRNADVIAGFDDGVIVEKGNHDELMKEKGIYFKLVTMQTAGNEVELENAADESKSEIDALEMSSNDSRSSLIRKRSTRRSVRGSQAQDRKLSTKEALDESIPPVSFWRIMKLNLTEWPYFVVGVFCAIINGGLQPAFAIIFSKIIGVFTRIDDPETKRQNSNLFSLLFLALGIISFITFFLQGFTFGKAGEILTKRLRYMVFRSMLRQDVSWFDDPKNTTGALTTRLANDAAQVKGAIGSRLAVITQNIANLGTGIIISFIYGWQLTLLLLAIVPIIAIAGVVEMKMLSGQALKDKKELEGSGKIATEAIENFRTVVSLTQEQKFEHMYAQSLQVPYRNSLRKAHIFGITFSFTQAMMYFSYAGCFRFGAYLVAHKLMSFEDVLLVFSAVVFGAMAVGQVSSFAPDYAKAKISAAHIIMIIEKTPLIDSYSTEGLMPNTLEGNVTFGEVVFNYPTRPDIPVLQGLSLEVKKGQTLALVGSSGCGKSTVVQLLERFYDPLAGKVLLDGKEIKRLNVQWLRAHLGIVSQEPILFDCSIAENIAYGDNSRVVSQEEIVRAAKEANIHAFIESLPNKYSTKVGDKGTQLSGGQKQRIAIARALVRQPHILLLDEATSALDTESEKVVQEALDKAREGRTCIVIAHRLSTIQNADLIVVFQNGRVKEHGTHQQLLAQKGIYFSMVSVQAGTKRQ
A further data set deals with MDCKII-ABCC1. Nature of the data set: MTT proliferation / drug combination assay. The format is cell-based, Canine. The conditions noted are these: Canis lupus familiaris, comparative MTT, 48 h, read-out: antiproliferative IC50. Here is the method: as §1, §2
The nature of data set [2]: MTT proliferation / drug combination assay. The format is cell-based, Canine. The conditions noted are these: dog, MDCKII-ABCG2 cells; MDCKII-ABCG2; comparative MTT, 48 h; read-out: antiproliferative IC50. Here is the method: as §1, §2
The test system of another data set is MDCKII-parent. Nature of the data set: MTT proliferation / drug combination assay. The format is cell-based, Canine. The conditions noted are these: Canis lupus familiaris; MDCKII-par; comparative MTT, 48 h; read-out: antiproliferative IC50. The procedure:
as §1, §2

The target of data set [3] is T1, ABCB1. The conditions noted are these: 12-days exposure; MCF-10A; cited from earlier work.
For data set [4] the following is noted: in-human mass-balance study; cited from earlier work.
The target of the next data set is T2, CYP2C19 (Homo sapiens, UniProt P33261).
T2 construct: purchased
T2 sequence (P33261 whole entry): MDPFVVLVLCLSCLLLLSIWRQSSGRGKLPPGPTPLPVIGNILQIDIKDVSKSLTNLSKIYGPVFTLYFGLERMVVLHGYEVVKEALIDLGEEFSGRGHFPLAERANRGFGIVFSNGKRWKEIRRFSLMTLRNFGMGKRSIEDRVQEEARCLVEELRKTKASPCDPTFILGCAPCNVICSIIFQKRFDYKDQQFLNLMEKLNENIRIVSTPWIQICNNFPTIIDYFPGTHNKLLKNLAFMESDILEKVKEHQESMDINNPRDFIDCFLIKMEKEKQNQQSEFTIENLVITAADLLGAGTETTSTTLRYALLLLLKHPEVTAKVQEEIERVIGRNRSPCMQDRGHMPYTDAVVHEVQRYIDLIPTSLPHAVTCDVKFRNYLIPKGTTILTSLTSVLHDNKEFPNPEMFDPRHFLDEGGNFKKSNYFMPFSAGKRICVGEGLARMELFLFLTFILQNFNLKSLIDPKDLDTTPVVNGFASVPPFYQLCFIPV
Description: Incubation assay with recombinant CYP (Vivid kit). The format is biochemical. The conditions noted are these: recombinant enzyme, Vivid substrate. The procedure:
(§3) Possible interactions of examined PARPi with human CYP3A4, CYP2C8, CYP2D6, CYP1A2, CYP2B6, CYP2C9, CYP2C19, and CYP3A5 were evaluated using commercial Vivid CYP450 Screening Kits. […] CYP isoenzymes were mixed with the NADPH-regeneration system, and resulting solutions were added to the wells. After 10 min preincubation, the solution of NADP ^+ and a particular Vivid substrate were added to start the CYP-catalyzed reaction. Fluorescence corresponding to the levels of produced metabolites was detected using the microplate reader Infinite […] (Tecan, Männedorf, Switzerland) in a kinetic mode (1-minute intervals). The data from the 15 min interval were selected to analyze the results.

Another data set deals with T3, CYP2C9 (Homo sapiens, UniProt P11712).
T3 construct: purchased
T3 sequence (P11712 whole entry): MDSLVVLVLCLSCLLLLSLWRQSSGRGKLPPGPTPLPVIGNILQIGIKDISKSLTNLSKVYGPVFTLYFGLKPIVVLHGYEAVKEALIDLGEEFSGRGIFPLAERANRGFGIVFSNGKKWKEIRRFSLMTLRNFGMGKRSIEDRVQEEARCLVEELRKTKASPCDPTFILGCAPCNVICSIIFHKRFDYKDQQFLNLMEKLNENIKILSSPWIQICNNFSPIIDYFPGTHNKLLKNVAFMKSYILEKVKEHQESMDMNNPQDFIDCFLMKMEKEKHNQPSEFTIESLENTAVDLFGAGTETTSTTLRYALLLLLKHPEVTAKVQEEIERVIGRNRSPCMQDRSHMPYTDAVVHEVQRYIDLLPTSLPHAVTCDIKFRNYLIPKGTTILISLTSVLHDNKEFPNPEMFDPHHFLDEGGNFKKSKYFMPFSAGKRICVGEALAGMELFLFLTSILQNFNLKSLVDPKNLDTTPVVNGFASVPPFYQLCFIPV
Description: Incubation assay with recombinant CYP (Vivid kit). The format is biochemical. The conditions noted are these: recombinant enzyme, Vivid substrate. Here is the method:
as §3

The target of another data set is T4, CYP2C8 (Homo sapiens, UniProt P10632).
T4 construct: purchased
T4 sequence (P10632 whole entry): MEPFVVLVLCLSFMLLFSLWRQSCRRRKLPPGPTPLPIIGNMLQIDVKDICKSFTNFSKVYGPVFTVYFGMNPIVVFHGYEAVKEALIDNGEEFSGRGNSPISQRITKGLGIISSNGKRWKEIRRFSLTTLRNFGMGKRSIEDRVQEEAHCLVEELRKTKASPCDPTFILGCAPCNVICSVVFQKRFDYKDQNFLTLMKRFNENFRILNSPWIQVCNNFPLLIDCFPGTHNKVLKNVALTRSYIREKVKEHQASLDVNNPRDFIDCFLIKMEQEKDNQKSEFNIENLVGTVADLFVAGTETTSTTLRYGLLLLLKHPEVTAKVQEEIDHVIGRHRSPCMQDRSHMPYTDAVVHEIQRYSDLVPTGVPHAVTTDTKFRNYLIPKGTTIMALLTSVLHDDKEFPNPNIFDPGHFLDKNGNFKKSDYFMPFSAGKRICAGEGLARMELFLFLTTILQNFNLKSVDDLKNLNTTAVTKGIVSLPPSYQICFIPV
Description: Incubation assay with recombinant CYP (Vivid kit). The data set is classed as biochemical. The conditions noted are these: recombinant enzyme, Vivid substrate. The procedure:
as §3

A further data set addresses T5, CYP1A2 (Homo sapiens, UniProt P05177).
T5 construct: purchased
Nature of the data set: Incubation assay with recombinant CYP (Vivid kit). The format is biochemical. The conditions noted are these: recombinant enzyme, Vivid substrate. The procedure: as §3

A further data set deals with T6, CYP2D6 (Homo sapiens, UniProt P10635).
T6 construct: purchased
T6 sequence (P10635 whole entry): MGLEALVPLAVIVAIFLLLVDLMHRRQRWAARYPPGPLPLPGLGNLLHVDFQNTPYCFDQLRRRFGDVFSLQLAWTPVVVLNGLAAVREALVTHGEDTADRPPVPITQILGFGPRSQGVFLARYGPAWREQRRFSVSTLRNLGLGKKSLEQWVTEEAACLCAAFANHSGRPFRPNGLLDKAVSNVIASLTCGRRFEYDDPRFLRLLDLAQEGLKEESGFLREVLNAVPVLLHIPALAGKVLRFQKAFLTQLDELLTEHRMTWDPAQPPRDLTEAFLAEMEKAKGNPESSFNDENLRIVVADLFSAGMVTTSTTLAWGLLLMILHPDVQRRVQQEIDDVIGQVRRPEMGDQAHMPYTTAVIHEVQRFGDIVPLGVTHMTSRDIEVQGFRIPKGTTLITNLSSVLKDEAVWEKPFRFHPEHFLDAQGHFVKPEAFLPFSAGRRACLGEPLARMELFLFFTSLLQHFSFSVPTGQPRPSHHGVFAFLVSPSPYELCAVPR
Description: Incubation assay with recombinant CYP (Vivid kit). The data set is classed as biochemical. The conditions noted are these: recombinant enzyme, Vivid substrate. The procedure: as §3

Data set [5] addresses T7, ABCC1 (Homo sapiens, UniProt P33527). Nature of the data set: Accumulation assay with daunorubicin in MDCKII-ABCC1 cells. The conditions noted are these: read-out: ABCC1 inhibition IC50. The format is cell-based. Also on record: expressed in transfected cells; host or cells: MDCKII (canine kidney) subline MDCKII-ABCC1, gift of Dr. Alfred Schinkel. Here is the method: The conduction of accumulation assays followed the slightly changed protocol described previously. In the study, MDCKII-par, MDCKII-ABCB1, MDCKII-ABCC1, MDCKII-ABCG2, and primary explants were seeded into 12-well plates in variant densities, 22.0 × 10^4, 15.0 × 10^4, 25.0 × 10^4, 22.0 × 10^4, and 15.0 × 10^4 cells/well, respectively. After 24 h incubation, two washing steps with 1 × PBS were applied. […] The cells were then incubated under standard conditions for 30 min. Next steps included placing the plates on ice, washing the cells with ice-cold 1 × PBS two-times, and detaching the cells with the ice-cold 10 × trypsin without phenol red. Following trypsinization, cells were resuspended in 1 × PBS containing 2% FBS. Subsequently, cell suspensions were transferred into the test tubes and kept on ice. The fluorescence in cells was measured immediately after the collection of their suspensions using flow cytometer Sony SA3800 Spectral Cell Analyzer (Sony Biotechnology, San Jose, CA, USA). SA3800 software (Sony Biotechnology, San Jose, CA, USA) was used to evaluate the data.

Data set [6] deals with T7, ABCC1. The conditions noted are these: 12-days exposure; MCF-10A; cited from earlier work.

A value given as a limit tells only on which side of the number the result lay.

T7 sequence (P33527 whole entry): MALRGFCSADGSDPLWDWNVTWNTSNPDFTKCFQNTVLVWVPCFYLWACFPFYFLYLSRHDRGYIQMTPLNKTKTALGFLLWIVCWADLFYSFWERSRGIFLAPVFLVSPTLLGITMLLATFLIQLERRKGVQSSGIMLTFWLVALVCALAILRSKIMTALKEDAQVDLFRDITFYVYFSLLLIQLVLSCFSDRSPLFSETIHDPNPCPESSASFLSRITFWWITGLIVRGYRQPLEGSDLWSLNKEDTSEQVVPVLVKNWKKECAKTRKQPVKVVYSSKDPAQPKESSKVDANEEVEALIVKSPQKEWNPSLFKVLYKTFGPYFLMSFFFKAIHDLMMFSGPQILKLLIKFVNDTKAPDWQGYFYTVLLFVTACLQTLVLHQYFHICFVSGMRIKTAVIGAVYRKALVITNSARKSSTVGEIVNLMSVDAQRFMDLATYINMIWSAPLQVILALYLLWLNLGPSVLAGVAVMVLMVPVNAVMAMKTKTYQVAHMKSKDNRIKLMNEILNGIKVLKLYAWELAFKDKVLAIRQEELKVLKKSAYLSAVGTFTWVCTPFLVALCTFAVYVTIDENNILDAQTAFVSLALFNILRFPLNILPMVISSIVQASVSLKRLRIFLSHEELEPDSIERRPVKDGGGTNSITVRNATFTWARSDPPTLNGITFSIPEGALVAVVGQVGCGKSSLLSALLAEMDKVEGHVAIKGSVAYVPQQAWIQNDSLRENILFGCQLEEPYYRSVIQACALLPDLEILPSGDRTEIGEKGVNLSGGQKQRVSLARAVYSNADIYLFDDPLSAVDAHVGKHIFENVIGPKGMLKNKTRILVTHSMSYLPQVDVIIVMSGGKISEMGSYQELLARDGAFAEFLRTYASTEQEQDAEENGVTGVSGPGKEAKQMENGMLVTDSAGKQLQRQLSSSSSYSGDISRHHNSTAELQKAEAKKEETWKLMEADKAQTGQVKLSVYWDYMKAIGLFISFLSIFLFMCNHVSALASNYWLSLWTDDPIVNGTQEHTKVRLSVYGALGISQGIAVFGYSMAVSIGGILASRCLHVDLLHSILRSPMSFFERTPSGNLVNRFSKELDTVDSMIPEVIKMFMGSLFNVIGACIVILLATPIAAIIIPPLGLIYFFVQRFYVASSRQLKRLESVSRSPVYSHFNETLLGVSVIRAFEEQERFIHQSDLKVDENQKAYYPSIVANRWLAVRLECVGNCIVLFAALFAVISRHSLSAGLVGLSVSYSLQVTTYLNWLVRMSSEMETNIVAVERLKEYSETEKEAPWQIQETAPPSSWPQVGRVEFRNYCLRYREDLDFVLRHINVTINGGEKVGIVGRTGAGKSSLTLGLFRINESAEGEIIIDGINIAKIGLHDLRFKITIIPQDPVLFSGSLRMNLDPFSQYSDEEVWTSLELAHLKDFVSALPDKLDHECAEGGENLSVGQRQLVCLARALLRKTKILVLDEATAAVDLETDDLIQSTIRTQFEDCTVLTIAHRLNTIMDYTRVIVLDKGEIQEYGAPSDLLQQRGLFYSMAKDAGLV

The IC50 is the concentration needed to halve the response being measured. On to `Cn1ncnc1[C@H]1c2n[nH]c(=O)c3cc(F)cc(c23)N[C@@H]1c1ccc(F)cc1` [talazoparib, Talazoparib], for which the IC50 in the data set on A431-ABCC1 was 91.5 µM; in the data set on A431-parent, 86.8 µM; in the data set with A431-ABCG2, 91.8 µM; with MDCKII-ABCC1 it was 66 µM; in the data set with MDCKII-parent, 69.4 µM; on CYP2C19, more than 50 µM. For the same compound, the IC50 was more than 50 µM on CYP2C9; more than 50 µM on CYP2C8; more than 50 µM on CYP1A2; more than 50 µM on CYP2D6; 5.62 µM at ABCC1 [5]. For the same compound, the ABCB1 substrate status result on ABCB1 [1] is reported as “substrate of ABCB1”. Also, in data set [2], the IC50 at 48 h was found to be 64.5 µM. Further, the “effect on ABCB1 mRNA” value at ABCB1 [3] was “upregulate”. Besides, at ABCB1 [3], the “effect on ABCB1 protein level” value is “fluctuating (concentration-dependent induction or downregulation)”. Also, the excretion entry in [4] was “a major fraction of the dose is excreted renally and biliary in unchanged form”. Also, the extent of metabolism result in [4] was “minimally metabolized”. On ABCC1 [6], the “effect on ABCC1 mRNA” value is reported as “upregulate”. Also, the “effect on ABCC1 protein level” value on ABCC1 [6] is listed as “unchanged”.
